Measurements from patent publication US6667311B2, “Nitrogen substituted biaryl purine derivatives as potent antiproliferative agents” (Albany Molecular Research, Inc., priority 2001, dated 2003).

Tests used:
Assay type in all cases: cell-based, human
HOP-92 = assay: NCI growth inhibition, HOP-92; details: HOP-92 (Non-Small Cell Lung)
EKVX = assay: NCI growth inhibition, EKVX; details: EKVX (Non-Small Cell Lung)
NCI-H322M = assay: NCI growth inhibition, NCI-H322M; details: NCI-H322M (Non-Small Cell Lung)
MCF7 = assay: NCI growth inhibition, MCF7; details: MCF7 (Breast)
MDA-N = assay: NCI growth inhibition, MDA-N; details: MDA-N (Breast)
SK-MEL-28 = assay: NCI growth inhibition, SK-MEL-28; details: SK-MEL-28 (Melanoma)
OVCAR-5 = assay: NCI growth inhibition, OVCAR-5; details: OVCAR-5 (Ovarian)
NCI-H460 = assay: NCI growth inhibition, NCI-H460; details: NCI-H460 (Non-Small Cell Lung)
SR = assay: NCI growth inhibition, SR; details: SR (Leukemia)
HCC-2998 = assay: NCI growth inhibition, HCC-2998; details: HCC-2998 (Colon)
UACC-62 = assay: NCI growth inhibition, UACC-62; details: UACC-62 (Melanoma)
SN12C = assay: NCI growth inhibition, SN12C; details: SN12C (Renal)
OVCAR-3 = assay: NCI growth inhibition, OVCAR-3; details: OVCAR-3 (Ovarian)

`CC(=O)N[C@H]1CC[C@H](Nc2nc(NCc3ccc(-c4ccccc4)nc3)c3ncn(C(C)C)c3n2)CC1` [Compound 87] showed a GI50 (HOP-92) of 88 nM, a GI50 (EKVX) of 81 nM and a GI50 (NCI-H322M) of 21 nM. It also gave a GI50 (MCF7) of 40 nM, a GI50 (MDA-N) of 14 nM and a GI50 (SK-MEL-28) of under 10 nM. For the same compound, the GI50 (OVCAR-5) was 51 nM, the GI50 (NCI-H460) was 220 nM and the GI50 (SR) was 32 nM. For the same compound, the GI50 (HCC-2998) was under 10 nM, the GI50 (UACC-62) was 45 nM and the GI50 (SN12C) was under 10 nM. It also gave a GI50 (OVCAR-3) of 50 nM.
